{
  "source": "patent US20240315219A1",
  "about": "“ANIMAL MODEL FOR DISEASES ASSOCIATED WITH ABSENCE OR REDUCTION OF SOCIAL DOMINANCE, AND PHARMACEUTICAL COMPOSITION FOR PREVENTING OR TREATING DISEASES” (ADEL, Inc., priority 2021, published 2024)",
  "key": {"C57BL/6 mice": {"test_system": "C57BL/6 mice", "experiment": "Tube dominance test, lowest-ranked mouse in C57BL/6 mouse group", "type": "in vivo", "conditions": "lowest-ranked C57BL/6 mouse, intracerebroventricular via osmotic pump", "description": "(§1) The apparatus for the tube dominance test was made of a transparent plastic tube with a length of 30 cm and an inner diameter of 2.5 cm. To allow the mice to adapt to passing through the inside of the tube, the respective mice were trained to pass across the tube alternately on both sides for two or three consecutive days. During the training period, care was taken to ensure that the mice passed through the tube as naturally as possible without causing stress. This test was performed after identifying that all mice could freely pass through the tube without stress.\nDuring the dominance test period, a total of 2 mice, one at each end of the tube, were placed to meet in the middle of the tube. In a case where one mouse pushed the other mouse out of the tube, one (1) winning point was earned. The test was repeated three times. For example, in a case where one mouse earned 2 or 3 winning points, the mouse was considered a winner and the other mouse was considered a loser. For the mice housed in the same cage, the tube test was performed on three mice in turn to determine social dominance ranking. For example, for mouse no. 1, the tube test was performed with mouse nos. 2 and 3. In a case where mouse no. 1 wins both mice, it is ranked first. Meanwhile, in a case where mouse no. 2 loses to mouse no. 1 and wins mouse no. 3, it is ranked second. In the two tests, mouse no. 3 is ranked third since it loses to both mice. For each test, win or loss was determined by winning points.\n(§2) First, starting at 1 month of age, the CRTC3 KO mice and the WT mice were housed in one group and raised together for 2 months. This allowed social ranking to be naturally formed among the mice in the same group. To determine changes in ranking of the mice in the group, social dominance ranking was evaluated by a tube dominance test daily for 15 days starting at 3 months of age. The respective mice in the group were tested in turn, and dominance ranking of the mice in the group was determined based on their winning points. […]"}, "wild-type rats": {"test_system": "wild-type rats", "experiment": "Brain fMRI, resting-state functional connectivity (rsFC) in wild-type rats", "type": "in vivo, rat", "conditions": "SD rats, vs PBS group", "description": "To identify which regions of the brain are affected by administration of AREG-EGF, fMRI was performed on wild-type rats injected with AREG-EGF. The rats having received PBS as a control and the rats having received AREG-EGF were imaged with fMRI one month later, in which interaction signals between various regions in the brain were checked. Specifically, the rats, which are SD (Spraque Dawley) rat species, were eight, 5- to 6-week-old male rats purchased from Orient Bio. AREG-EGF was administered to the rats by intracerebroventricular injection (ICV) on Weeks 6 to 7 after the purchase, and fMRI imaging was performed 21 days after the administration. The fMRI imaging was performed in such a way that first imaging was performed on an anesthetized rat under normal conditions (pre-state), and then fMRI re-imaging was performed on the same rat by placing cotton soaked in the urine of another rat, which it had never encountered, so that the rat being imaged can sniff the cotton (post-state). For rodents, social responses such as social identification occur through urine marking done by the other individuals. Thus, urine from an unfamiliar rat was used to elicit social responses. For specific methods of administering AREG-EGF and performing MRI analysis, see Experimental Examples 2.1 and 3. […]"}, "CRTC3 KO mice": {"test_system": "CRTC3 KO mice", "experiment": "Tube dominance test, CRTC3 KO mice housed with WT mice", "type": "in vivo, mouse", "description": "as §1\nDuring the dominance test period, a total of 2 mice, one at each end of the tube, were placed to meet in the middle of the tube. In a case where one mouse pushed the other mouse out of the tube, one (1) winning point was earned. The test was repeated three times. […] For each test, win or loss was determined by winning points. […]\nas §2, with “This allowed social ranking to be naturally formed among the mice in the same group.” left out"}},
  "data": [
    {"substance": "AREG-HB: Peptide of the heparin-binding domain of amphiregulin, SEQ ID NO: 14, from Peptron; control (SVRVEQVVKPPQNKTESENTSDKPKRKKKGGKNGKNRRNRK; AREG-HB Peptide) [reference compound]", "values": [
      {"measurement": "cages in which ranking of the lowest-ranked mouse increased after administration", "setting": "C57BL/6 mice", "value": 10, "unit": "%"}
    ]},
    {"substance": "AREG-EGF: Peptide of the EGF domain of amphiregulin, SEQ ID NO: 13, from Peptron (KKNPCNAEFQNFCIHGECKYIEHLEAVTCKCQQEYFGERCGEK; AREG-EGF Peptide)", "values": [
      {"measurement": "cages in which ranking of the lowest-ranked mouse increased after administration", "setting": "C57BL/6 mice", "value": 80, "unit": "%"},
      {"measurement": "rsFC between PFC and PC (average z-transformed correlation coefficient)", "setting": "wild-type rats; ICV osmotic pump, fMRI 21 days after", "value": "significantly high activity"},
      {"measurement": "rsFC seed-correlation spatial map, seed Cg1/2 (24b′/24a′)", "setting": "wild-type rats; ICV", "value": "significantly enhanced region was observed in PC"},
      {"measurement": "cages in which changes (increase) in social dominance ranking were observed after administration", "setting": "CRTC3 KO mice; CRTC3 KO mice with low ranking, housed with WT mice, intracerebroventricular via osmotic pump", "value": 50, "unit": "%"},
      {"measurement": "winning points after vs before administration", "setting": "CRTC3 KO mice; CRTC3 KO mice, ICV osmotic pump", "value": "changes in winning points and increases in tube test ranking"}
    ]},
    {"substance": "mEGF: Recombinant mouse EGF from R&D Systems, SEQ ID NO: 12; control (NSYPGCPSSYDGYCLNGGVCMHIESLDSYTCNCVIGYSGDRCQTRDLRWWELR; Mouse EGF Protein; listed as Mus musculus) [reference compound]", "values": [
      {"measurement": "cages in which ranking of the lowest-ranked mouse increased after administration", "setting": "C57BL/6 mice", "value": 0, "unit": "%"}
    ]}
  ]
}
